Experimental data taken from patent publication US12696899B2, “Microbiocidal 2-acylamino-thiazole-4-carboxamide derivatives” (SYNGENTA CROP PROTECTION AG, priority 2018, dated 2026).
Read-outs that look alike come from different tables or passages of the source.

Tests used:
[1] = tested on: Pyrenophora teres; assay: Example B15 Pyrenophora teres/barley/leaf disc preventative (net blotch); assay type: in vivo; conditions: foliar, barley leaf disc preventative, compared to untreated control
[2] = tested on: Magnaporthe grisea (Pyricularia oryzae); assay: whole plant or invertebrate; assay type: in vivo; conditions: foliar, read-out: control of Magnaporthe grisea
[3] = Octanol-water partition coefficient (Log P) by HPLC on octanol-coated mini-columns; conditions: pH 7
[4] = Solubility in heptane
[5] = Solubility in aqueous buffer (10 mM mixed phosphate, pH 7.20)
[6] = Photostability, thin-film irradiation in Atlas Suntest xenon lamp; assay type: physicochemical; conditions: thin film on glass, Suntest 750 W/m2; time for first 50% loss
Procedure: Photostability tests were carried out by irradiation of thin-film deposits of compounds and formulations on glass surfaces, using a filtered xenon lamp system (Atlas Suntest) which reproduces the spectrum and intensity of sunlight. The spectral output power of the Suntest was set to 750 W/m2, which is the typical daily maximum irradiance level at noon (UK, midsummer).
Test compounds were typically dissolved in HPLC grade methanol to give 1 g/L stock solutions. Alternatively, formulated compounds were suspended in water at the same concentration. 2 μL droplets of test solutions were spotted onto microscope cover slips in a 3D printed holder, allowed to dry then irradiated in the Suntest for varying times. Cover slips were then removed from the Suntest and placed in 4 dram vials; 1 mL of wash solvent (typically 30:70 acetonitrile: 0.2% aqueous formic acid) was added, and the vials shaken to extract compounds into solution. Solutions were analysed by reverse phase HPLC, typically using a Waters UPLC system with Photodiode Array (PDA) and Waters columns (BEH C18, 100×2.1 mm×1.7 μm) using mixed aqueous:acetonitrile mobile phase, acidifed with 0.2% formic acid. Peak detection was at the optimum wavelength for each candidate compound and PDA peak areas were used for quantification. Plots of % loss versus time were used to estimate T50 values, being the time taken for first 50% loss of test compound.

[7] = pH 7.2
[8] = physchem; conditions: pH 7
[9] = tested on: Fusarium culmorum; assay type: in vivo; conditions: 200 ppm; wheat spikelet preventative; compared to untreated control
[10] = tested on: Gibberella zeae (Fusarium graminearum); assay type: in vivo; conditions: 200 ppm; wheat spikelet preventative; compared to untreated control

| Structure (SMILES) | Photostability T50 [6] [h] | Solubility in water [7] [ppm] | chromatographic logP [8] | other results |
| --- | --- | --- | --- | --- |
| COCC(=O)N(c1cc(F)nc(F)c1)c1nc(C(=O)NC2CCC23CCCC3)c(C)s1 (stereo not shown) [I.c.600, 2-[(2,6-difluoro-4-pyridyl)-(2-methoxyacetyl)amino]-5-methyl-N-spiro[3.4]octan-3-yl-thiazole-4-carboxamide] | – | – | – | pest or weed control at 200 ppm [1]: ≥ 80%; pest or weed control at 200 ppm [2]: ≥ 80% |
| Cc1sc(N(C(=O)Oc2ccccc2)c2cc(F)nc(F)c2)nc1C(=O)NC1CCC1(C)C (stereo not shown) [I.b.616, phenyl N-(2,6-difluoro-4-pyridyl)-N-[4-[(2,2-dimethylcyclobutyl)carbamoyl]-5-methyl-thiazol-2-yl]carbamate] | 18 | – | – | chromatographic logP [3]: 5.34; Solubility in heptane [4]: 673 ppm; Solubility in water [5]: 0.10 ppm |
| COC(=O)N(c1cc(F)nc(F)c1)c1nc(C(=O)NC2CCC2(C)C)c(C)s1 (stereo not shown) [I.b.598, methyl N-(2,6-difluoro-4-pyridyl)-N-[4-[(2,2-dimethylcyclobutyl)carbamoyl]-5-methyl-thiazol-2-yl]carbamate] | 6.2 | – | – | chromatographic logP [3]: 4.21; Solubility in heptane [4]: 1155 ppm; Solubility in water [5]: 1.4 ppm |
| Cc1sc(Nc2cc(F)nc(F)c2)nc1C(=O)NC1CCC1(C)C (stereo not shown) [Compound E-0, 2-[(2,6-difluoro-4-pyridyl)amino]-N-(2,2-dimethylcyclobutyl)-5-methyl-thiazole-4-carboxamide, reference compound] | 3.5 | 0.70 | – | – |
| Cc1sc(N(C=O)c2cc(F)nc(F)c2)nc1C(=O)NC1CCC1(C)C (stereo not shown) [I.b.595, 2-[(2,6-difluoro-4-pyridyl)-formyl-amino]-N-(2,2-dimethylcyclobutyl)-5-methyl-thiazole-4-carboxamide] | 2.8 | 2.5 | 3.61 | – |
| COCC(=O)N(c1cc(F)nc(F)c1)c1nc(C(=O)NC2CCC2(C)C)c(C)s1 (stereo not shown) [I.b.600, 2-[(2,6-difluoro-4-pyridyl)-(2-methoxyacetyl)amino]-N-(2,2-dimethylcyclobutyl)-5-methyl-thiazole-4-carboxamide] | 2.8 | 18 | 3.35 | control of Fusarium culmorum [9]: at least 80% |
| Cc1sc(N(C(=O)c2ccco2)c2cc(F)nc(F)c2)nc1C(=O)NC1CCC1(C)C (stereo not shown) [I.b.614, 2-[(2,6-difluoro-4-pyridyl)-(furan-2-carbonyl)amino]-N-(2,2-dimethylcyclobutyl)-5-methyl-thiazole-4-carboxamide] | 14 | 0.054 | 4.61 | – |
| CCOC(=O)C(=O)N(c1cc(F)nc(F)c1)c1nc(C(=O)NC2CCC2(C)C)c(C)s1 (stereo not shown) [I.b.612, ethyl 2-[(2,6-difluoro-4-pyridyl)-[4-[(2,2-dimethylcyclobutyl)carbamoyl]-5-methyl-thiazol-2-yl]amino]-2-oxo-acetate] | 5.5 | – | 4.34 | – |
| COC(=O)CC(=O)N(c1cc(F)nc(F)c1)c1nc(C(=O)NC2CCC2(C)C)c(C)s1 (stereo not shown) [I.b.607, methyl 3-[(2,6-difluoro-4-pyridyl)-[4-[(2,2-dimethylcyclobutyl)carbamoyl]-5-methyl-thiazol-2-yl]amino]-3-oxo-propanoate] | 4.4 | 12 | 3.59 | control of Gibberella zeae [10]: at least 80% |
| CCOC(=O)N(c1cc(F)nc(F)c1)c1nc(C(=O)NC2CCC2(C)C)c(C)s1 (stereo not shown) [I.b.599, ethyl N-(2,6-difluoro-4-pyridyl)-N-[4-[(2,2-dimethylcyclobutyl)carbamoyl]-5-methyl-thiazol-2-yl]carbamate] | 11 | 1.0 | 4.58 | – |
| CC(=O)N(c1cc(F)nc(F)c1)c1nc(C(=O)NC2CCC2(C)C)c(C)s1 (stereo not shown) [I.b.596, 2-[acetyl-(2,6-difluoro-4-pyridyl)amino]-N-(2,2-dimethylcyclobutyl)-5-methyl-thiazole-4-carboxamide] | 5.5 | 3.7 | 3.8 | – |
